Test results from patent publication US6013672A, “Agonists of metabotropic glutamate receptors and uses thereof” (UAB Research Foundation, priority 1997, dated 2000).
Where two headings read alike, the source gives them in different places.

What was measured:
hippocampal astrocytes [1] = test: Extracellular glutamate [Glu]o released by astrocyte cultures (bioluminescence); assay type: cell-based, rat; conditions: Rattus norvegicus, Astrocyte, read-out: % of control [Glu]0
[2] = test system: rat hippocampal brain slices; test: THA-induced glutamate release in acute hippocampal brain sections; assay type: cell-based; conditions: 400 min pretreatment
Description: This was accomplished using THA, a heteroexchange drug that is also a substrate for the glutamate transporter. For each molecule of THA transported into the cell, one molecule of glutamate is released. Therefore, THA allows the induction of glutamate release.

glial cells = test: Glial glutamate uptake and extracellular glutamate with MPTP/MPP+ and t-ACPD; assay type: cell-based
Description: The normally low glutamate levels in the brain are established and maintained in glial cells by non-vesicular uptake of glutamate through a Na^+ -dependent transporter (FIG. 14). Once taken up, glutamate can be converted to glutamine and recycled for neurotransmitter synthesis in neurons (FIG. 14). If glial cells in culture are exposed to high glutamate concentrations (e.g., 100 μM), they will remove it from the extracellular space and essentially "detoxify" the neuronal environment. […] Under those conditions, extracellular glutamate levels are elevated to 7 μM (FIG. 16), which is toxic to most surrounding neurons.
Impaired glial glutamate transport may contribute to the loss of dopaminergic neurons in Parkinson's disease. Thus, stimulation of this pathway would be neuroprotective. A drug and its receptor on glial cells was identified that allows enhanced glutamate detoxification. Specifically, trans-ACPD (trans-1-amino-1,3-cyclopentane dicarboxylic acid) (t-ACPD), a group II metabotropic glutamate receptor agonist, enhanced glial glutamate uptake (FIG. 17). It's actions were 2-fold; (i) it enhanced glutamate uptake by up to 80%, and (ii) it decreased non-specific release of glutamate, effectively trapping glutamate inside glial cells. In fact, the release of glutamate decreased to such a large extent that it almost made the transporter rectify, e.g. allowing only influx and preventing outflow of glutamate (FIG. 18). […] Using antibodies and further pharmacological studies, the receptor that is responsible for these effects has been identified as mGluR2/3.
In Parkinson's disease, it is believed that neurons may die of excitotoxic exposure to glutamate. The present invention determined that MPTP directly effects glutamate uptake into astrocytes (FIG. 21, top left). […] This increased release may be sufficient to explain some of the subsequent neurodegeneration.

hippocampal astrocytes [3] = test: 3H-D-aspartate (glutamate/aspartate) uptake in astrocytes; assay type: cell-based, rat; conditions: Rattus norvegicus, Astrocyte; 0.5 mM, 24 hour exposure; average of 25 experiments; read-out: glutamate/aspartate uptake enhanced by
Description: Uptake procedures were essentially identical to those previously described (Kimelberg et al. 1989; Ye et al., 1996). Briefly, 5-10 minutes before assessing uptake, astrocytes were washed and kept in a solution containing (in mM): NaCl 122, KCl 3, MgSO4 0.4, KH2 PO4 1.2, NaHCO3 25, D-glucose 10, and CaCl2 1.3, at 37° C., bubbled with 5%/95% CO2 /O2. Then the cells were switched to the above solution supplemented with 0.1 mM D-aspartate and 0.4 μCi/ml ^3 H-D-aspartate. Glutamate/aspartate uptake was determined over a 10 or 30 minutes period and was terminated by three quick washes, twice with ice cold 0.29 M sucrose solution with 10 mM Tris Nitrate, 0.5 mM Ca(NO3)2, (pH 7.40 by NaOH) and then with ice cold PBS. Cells were then harvested after a 30 minute incubation in 0.3 N NaOH solution (37° C.) and ^3 H activity was determined in a liquid scintillation counter (Beckman). Total uptake was normalized to protein content to eliminate variability due to cell number. Protein levels were determined using the bicinchoninic acid (BCA) assay (Pierce; Rockford, Ill.).

hippocampal astrocytes [4] = test: Removal of an exogenous glutamate challenge by astrocyte cultures, [Glu]o over time; assay type: cell-based, rat
Description: The bioluminescence method for detection was used for glutamate in solution as described by Fosse et al. (1986) with only minor modifications. The glutamate-specific reagent mixture contained potassium phosphate (pH 7.0) 25 mM, Triton X-100 40 μg/ml, dithiothreitol 100 μM, Myristyl aldehyde 40 μM (Aldrich; Milwaukee, Wis.), β-NAD 2 mM, ADP 250 μM, FMN 2.5 μM, luciferase 40 μg/ml, NAD(P)H:FMN oxidoreductase 400 mU/ml, glutamate dehydrogenase 0.5 mg/ml. All experiments were performed with a Monolight 2010 luminomitor (Analytical Luminescence Lab; Ann Arbor, Mich.).
For experiments in which [Glu]o concentrations were assessed by the bioluminescence method, cells were maintained in glutamate-depleted medium in the presence or absence of the agonists/antagonist combination of interest. To assess chronic effects, glutamate analogues were applied for 24 hours unless indicated otherwise. After the incubation period, the stimulation media (containing drugs of interest) were aspirated and cells were washed twice with MEM and allowed to remain for 30 to 60 minutes in drug free MEM supplemented with 20 mM glucose prior to taking media samples for glutamate measurements. To assess acute drug effects, untreated cells were washed and the reagent of interest applied in glucose supplemented MEM. Cells were harvested in 0.3 N NaOH and neutralized with 0.3 N HCl. Aliquots were stored in -20° C. for protein and [Glu]i determination. Glutamate standards used for calibration were prepared in MEM (For [Glu]i in 0.15 N NaCl).
To delineate the role of mGluR receptors on [Glu]o levels, hippocampal astrocytes were challenged with 50 μM glutamate and cells that were pretreated with trans-ACPD were compared to control cultures (FIG. 2A). Control astrocytes rapidly remove glutamate from the medium, and after ≈3 hours, [Glu]o stabilized at values to 1 μM. […] Mean values were 0.96±0.1 μM in control astrocytes, as compared to 0.18±0.03 μM in trans-ACPD treated astrocytes.
Glutamate undoubtedly is the endogenous ligand for mGluRs. However, it was necessary to establish whether glutamate itself can induce the modulation in glutamate levels observed, and thus can mimic the modulatory effects observed with ACPD. These studies are difficult since, unlike ACPD, glutamate is also a substrate for the transporter, and therefore, is readily removed. Experiments were carried out in two ways, each yielding similar results. First, cells were preincubated for 24 hours with 100 μM glutamate, then washed and [Glu]o measured in MEM, or secondly, glutamate was directly applied in MEM and changes in [Glu]o were monitored.

GLT-1 = conditions: cited from earlier work
dopaminergic neurons = test: Cell death of dopaminergic neurons induced by glutamate or MPTP; assay type: cell-based, rat
Description: Cell death of dopaminergic neurons induced by glutamate, and the role of glial glutamate transport in protection of cell death at the cellular level were studied as it relates to Parkinson's disease. […] Thus, glutamate concentrations as low as 3-5 μM induced rapid cell death (FIGS. 11 and 12). Glutamate concentrations were also measured in the normal brain. They are typically around 1 μM, below the toxic level for dopaminergic neurons. […] This late onset of glutamate toxicity is compatible with the late onset of Parkinson's disease.

[5] = 500 μM for 24 hour before 50 μM glutamate challenge

N[C@@]1(C(=O)O)CC[C@@H](C(=O)O)C1 (relative stereo) [trans-ACPD, trans-1-aminocyclopentane-1,3-dicarboxylic acid]
activity at 100 µM (hippocampal astrocytes [1]; 432 h, cells P9, 18 days in vitro, 250 μM agonist): 46.3 ± 4.3% | activity at 100 µM (hippocampal astrocytes [1]; 432 h, cells P23, 18 days in vitro, 200 μM agonist): 12.4 ± 1.2% | activity at 100 µM (hippocampal astrocytes [1]; 456 h, cells P21, 19 days in vitro, 100 μM agonist): 23.1 ± 1.4% | activity at 100 µM (hippocampal astrocytes [1]; 624 h, cells P15, 26 days in vitro, 100 μM agonist): 20 ± 6.1% | activity at 100 µM (hippocampal astrocytes [1]; 672 h, cells P2, 28 days in vitro, 500 μM agonist): 78.2 ± 10.1% | activity at 100 µM (hippocampal astrocytes [1]; cells P0, 60 days in vitro, 100 μM agonist): 60.6 ± 6.3% | activity at 100 µM (hippocampal astrocytes [1]; cells P2, 25 days in vitro, 500 μM agonist): 59.6 ± 10.1% | activity at 100 µM (hippocampal astrocytes [1]; cells P2, 34 days in vitro, 100 μM agonist): 51.3 ± 5.7% | activity at 100 µM (hippocampal astrocytes [1]; cells P40, 31 days in vitro, 100 μM agonist): 19.5 ± 2.7% | reduction of THA-induced glutamate release [2]: ≈ 40% | enhancement of glutamate uptake (glial cells): up to 80% | reduction of extracellular glutamate levels versus control (glial cells; neuron-glial cocultures (FIG. 19)): up to 100% | activation at 500 µM (hippocampal astrocytes [3]): 31 ± 2.7% | steady-state [Glu]o after glutamate challenge (hippocampal astrocytes [4]; [5]): 0.18 ± 0.03 µM | steady-state [Glu]o lower than in control cultures (hippocampal astrocytes [4]; [5]): 5 fold

N[C@@H](CCC(=O)O)C(=O)O [glutamate]
Km (GLT-1): 2 µM | IC50 (dopaminergic neurons): ~5 µM | neuronal cell death (dopaminergic neurons; 0.03 mM): neurotoxic to most neurons | susceptibility of neurons to glutamate by age (dopaminergic neurons; adult rats (>30 days)): highest glutamate sensitivity | glutamate concentrations inducing rapid cell death (dopaminergic neurons; rat): 3 to 5 µM | susceptibility of neurons to glutamate by age (dopaminergic neurons; young rats): relatively insensitive | duration of glutamate undershoot (hippocampal astrocytes [4]; 100 μM glutamate): approximately 10 hours | THA induced glutamate release during undershoot (hippocampal astrocytes [4]; 100 μM glutamate several hours before, 200 μM THA): induced less glutamate release | [Glu]o undershoot level after glutamate challenge (hippocampal astrocytes [4]; 100 μM glutamate, P22 astrocyte culture): ≈ 0.4 μM
